Like-named read-outs stand apart in the source and are kept apart here.
Tests used:
[1] = biological target: human TYK2 (JH2domain-pseudokinase) (Homo sapiens (Human), UniProt P29597); experiment: TYK2 JH2 Domain Binding Assay (KINOMEscan)
In short: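 Competition binding of a DNA-tagged fusion of human TYK2 JH2 pseudokinase (G556–D888) with NFkB DNA-binding domain, from HEK293 extracts (<0.1 nM final), against immobilised ligand beads; 1 h shaking at room temperature, 0.9% DMSO. Bound kinase quantified by qPCR.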

[2] = biological target: Tyk2 kinase domain (DH1) (Homo sapiens (Human), UniProt P29597); experiment: Tyk2 Radioactive Kinase Assay; type: biochemical; conditions: for inhibition at 10 µM: read-out: Tyk2 JH1% Inhibition @ 10 μM
In short: (§1)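 Values are single-concentration percent inhibition figures. They were obtained with 10 μM compound in a radioactivity-based kinase assay run separately on each enzyme.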

[3] = biological target: JAK2 kinase domain (JH1) (Homo sapiens (Human), UniProt O60674); experiment: JAK2 Radioactive Kinase Assay; type: biochemical; conditions: for inhibition at 10 µM: read-out: JAK2 JH1% Inhibition @ 10 μM
In short: as §1

Sequence of human TYK2 (JH2domain-pseudokinase) (P29597 556-888): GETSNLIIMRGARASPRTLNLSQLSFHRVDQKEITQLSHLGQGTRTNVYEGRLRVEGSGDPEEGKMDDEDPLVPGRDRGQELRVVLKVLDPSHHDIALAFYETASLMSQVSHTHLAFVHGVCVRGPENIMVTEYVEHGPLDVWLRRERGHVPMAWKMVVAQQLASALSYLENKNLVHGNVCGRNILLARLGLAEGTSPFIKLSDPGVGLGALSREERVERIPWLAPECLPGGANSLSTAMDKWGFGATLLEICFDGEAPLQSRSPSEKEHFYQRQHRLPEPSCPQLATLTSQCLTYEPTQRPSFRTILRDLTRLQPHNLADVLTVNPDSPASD
Sequence of JAK2 kinase domain (JH1) (O60674 849-1124): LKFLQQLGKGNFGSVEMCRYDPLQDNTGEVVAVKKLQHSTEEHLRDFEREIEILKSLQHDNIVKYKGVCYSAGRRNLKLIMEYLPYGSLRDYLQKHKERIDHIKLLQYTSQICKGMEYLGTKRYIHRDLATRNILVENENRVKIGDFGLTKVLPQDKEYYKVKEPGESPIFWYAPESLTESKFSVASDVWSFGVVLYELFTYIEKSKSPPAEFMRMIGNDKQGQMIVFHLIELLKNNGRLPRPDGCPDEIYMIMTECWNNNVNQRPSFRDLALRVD
Sequence of Tyk2 kinase domain (DH1) (P29597 897-1176): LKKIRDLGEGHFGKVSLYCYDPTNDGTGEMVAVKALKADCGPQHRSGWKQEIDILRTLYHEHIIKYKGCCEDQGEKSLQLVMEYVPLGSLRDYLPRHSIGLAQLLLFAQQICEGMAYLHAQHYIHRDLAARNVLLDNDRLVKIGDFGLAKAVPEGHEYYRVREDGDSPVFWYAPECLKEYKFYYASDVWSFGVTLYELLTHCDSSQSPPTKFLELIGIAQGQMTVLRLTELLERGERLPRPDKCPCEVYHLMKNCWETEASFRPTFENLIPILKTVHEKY

SMILES	Kd [1] [nM]	inhibition at 10 µM ([2]; compound at 10 μM, ATP 10 μM) [%]	inhibition at 10 µM ([3]; compound at 10 μM, ATP 10 μM) [%]	other results
CNc1cc(Nc2cccn(-c3ccc(C)nc3)c2=O)nc2c(C(=O)NC3CC3)cnn12 [I-765, N-cyclopropyl-5-((6′-methyl-2-oxo-2H-[1,3′-bipyridin]-3-yl)amino)-7-(methylamino)pyrazolo[1,5-a]pyrimidine-3-carboxamide]	< 0.2	< 50	< 50	
CNc1cc(Nc2cccnc2OC2CCC2)nc2c(C(=O)NC3CC3)cnn12 [I-169]	0.2 to 1	< 50	< 50	
CNc1cc(Nc2cccn([C@H]3CC[C@H](OC)CC3)c2=O)nc2c(C(=O)NCC(C)CO)cnn12 (stereo partly drawn) [I-613]	< 0.2	< 50	< 50	
CNc1cc(Nc2cccn([C@H]3CCCOC3)c2=O)nc2c(C(=O)N[C@H]3[C@@H]4COC[C@@H]43)cnn12 [I-651]	> 10	< 50	< 50	
CNc1cc(Nc2cccnc2OC2CCCCC2)nc2c(C(=O)NC3CCC3)cnn12 [I-226]	1 to 10	< 50	< 50	
CNc1cc(Nc2cc(Cl)cnc2O[C@H]2C[C@@H](OC)C2)nc2c(C(N)=O)cnn12 [I-96]	0.2 to 1	< 50	< 50	
CNc1cc(Nc2cccn(C3CCCN(C)C3)c2=O)nc2c(C(=O)N[C@@H]3C[C@@H]3F)cnn12 (stereo partly drawn) [I-506]	< 0.2	< 50	< 50	
CNc1cc(Nc2cccn([C@H]3CCCN(C)C3)c2=O)nc2c(C(=O)N[C@@H]3C[C@@H]3F)cnn12 [I-535]	< 0.2	< 50	< 50	
CNc1cc(Nc2cccc(-c3cn(C)nc3F)n2)nc2c(C(=O)NC3CC3)cnn12 [I-859]	< 0.2			inhibition at 10 µM ([2]; 10 μM compound, 10 μM ATP): < 50%; inhibition at 10 µM ([3]; 10 μM compound, 10 μM ATP): < 50%
CNc1cc(Nc2cccn([C@@H]3CCOC[C@@H]3OC)c2=O)nc2c(C(=O)NC3CC3)cnn12 [I-567]	1 to 10	< 50	< 50	
CNc1cc(Nc2cccc(N3CCOCC3)c2Cl)nc2c(C(N)=O)cnn12 [I-18]	< 0.2	< 50	< 50	
CNc1cc(Nc2cccn(-c3cncc(F)c3)c2=O)nc2c(C(=O)N[C@@H]3C[C@@H]3F)cnn12 [I-968]	< 0.2			inhibition at 10 µM ([2]; 10 μM compound, 10 μM ATP): < 50%; inhibition at 10 µM ([3]; 10 μM compound, 10 μM ATP): < 50%
CNc1cc(Nc2cccnc2OC)nc2c(C(=O)NCC(C)CO)cnn12 (stereo not drawn) [I-434, N-(3-hydroxy-2-methylpropyl)-5-((2-methoxypyridin-3-yl)amino)-7-(methylamino)pyrazolo[1,5-a]pyrimidine-3-carboxamide]	< 0.2	< 50	< 50	
CNc1cc(Nc2cccn([C@@H]3CCCOC3)c2=O)nc2c(C(=O)N[C@@H]3CC[C@@H](O)C3)cnn12 [I-739]	0.2 to 1	< 50	< 50	
CNc1cc(Nc2cccn([C@H]3C[C@@H]3F)c2=O)nc2c(C(=O)N[C@@H]3CC[C@H]3O)cnn12 [I-1092]	0.2 to 1			inhibition at 10 µM ([2]; 10 μM compound, 10 μM ATP): < 50%; inhibition at 10 µM ([3]; 10 μM compound, 10 μM ATP): < 50%
CNc1cc(Nc2cccn(C3CCOCC3)c2=O)nc2c(C(=O)NCC(C)CO)cnn12 (stereo not drawn) [I-649]	< 0.2	< 50	< 50	
CNc1cc(-c2cn(CCN3CCOCC3)c3ncccc23)nc2c(C(=O)N[C@H]3CC[C@H]3O)cnn12 [I-778]	< 0.2	< 50	< 50	
CNc1cc(-c2nn(CCN3CCN(C)CC3)c3ncccc23)nc2c(C(=O)NC3CC3)cnn12 [I-479]	1 to 10	< 50	< 50	
CNc1cc(Nc2cccn(-c3nc(C)co3)c2=O)nc2c(C(=O)NCC(C)CO)cnn12 (stereo not drawn) [I-663]	< 0.2	< 50	< 50	
CNc1cc(Nc2cccn(-c3cnn(C[C@@H]4CCOC4)c3)c2=O)nc2c(C(=O)NC3CC3)cnn12 [I-600]	< 0.2	< 50	< 50	
CNc1cc(Nc2cccn(CCOC)c2=O)nc2c(C(=O)N[C@H]3C[C@H]3F)cnn12 [I-268]	< 0.2	< 50	< 50	

SMILES	Kd [1] [nM]	inhibition at 10 µM ([2]; compound at 10 μM, ATP 10 μM) [%]	inhibition at 10 µM ([3]; compound at 10 μM, ATP 10 μM) [%]	other results
CNc1cc(Nc2cccn([C@H]3CCC[C@@H]3OC)c2=O)nc2c(C(=O)NC3CC3)cnn12 [I-436]	0.2 to 1			Tyk2 JH1% Inhibition @ 10 μM ([2]; compound at 10 μM, ATP 10 μM): A (percent inhibition at 10 μM lower than 50); JAK2 JH1% Inhibition @ 10 μM ([3]; compound at 10 μM, ATP 10 μM): A (percent inhibition at 10 μM lower than 50)
CNc1cc(Nc2cccn([C@H]3CCC[C@@H]3OC)c2=O)nc2c(C(=O)NC3CC3)cnn12 [I-403]	0.2 to 1	< 50	< 50	
CNc1cc(Nc2cccn([C@@H]3CCC[C@@H](OC)C3)c2=O)nc2c(C(=O)NCC(C)(C)CO)cnn12 [I-1028]	0.2 to 1			inhibition at 10 µM ([2]; 10 μM compound, 10 μM ATP): < 50%; inhibition at 10 µM ([3]; 10 μM compound, 10 μM ATP): < 50%
CNc1cc(-c2cn(CCN3CCOCC3)c3ncccc23)nc2c(C(=O)N[C@H]3COC[C@H]3O)cnn12 (stereo in doubt) [I-791, N-(4-hydroxytetrahydrofuran-3-yl)-7-(methylamino)-5-(1-(2-morpholinoethyl)-1H-pyrrolo[2,3-b]pyridin-3-yl)pyrazolo[1,5-a]pyrimidine-3-carboxamide]	0.2 to 1	< 50	< 50	
CNc1cc(Nc2cccnc2OC)nc2c(C(=O)N[C@H]3CCC[C@H](O)C3)cnn12 [I-496]	< 0.2	< 50	< 50	
[2H]C([2H])([2H])Oc1ncccc1Nc1cc(NC)n2ncc(C(=O)NCCC3(O)CC3)c2n1 [I-470, N-(2-(1-hydroxycyclopropyl)ethyl)-5-((2-(methoxy-d3)pyridin-3-yl)amino)-7-(methylamino)pyrazolo[1,5-a]pyrimidine-3-carboxamide]	< 0.2	< 50	< 50	
CNc1cc(Nc2cccnc2C(C)(F)F)nc2c(C(=O)NCC(C)(C)CO)cnn12 [I-355]	0.2 to 1	< 50	< 50	
CNc1cc(Nc2cccnc2OC)nc2c(C(=O)N[C@H]3CC[C@@]3(C)O)cnn12 (stereo in doubt) [I-911, N-(2-hydroxy-2-methylcyclobutyl)-5-((2-methoxypyridin-3-yl)amino)-7-(methylamino)pyrazolo[1,5-a]pyrimidine-3-carboxamide]	1 to 10			Tyk2 JH1% Inhibition @ 10 μM ([2]; 10 μM compound, 10 μM ATP): A (percent inhibition at 10 μM lower than 50); JAK2 JH1% Inhibition @ 10 μM ([3]; 10 μM compound, 10 μM ATP): A (percent inhibition at 10 μM lower than 50)
CNc1cc(Nc2cccnc2OC2CC2)nc2c(-c3cn(C(C)C)nn3)cnn12 [I-985, N5-(2-cyclopropoxypyridin-3-yl)-3-(1-isopropyl-1H-1,2,3-triazol-4-yl)-N7-methylpyrazolo[1,5-a]pyrimidine-5,7-diamine]	0.2 to 1			inhibition at 10 µM ([2]; 10 μM compound, 10 μM ATP): < 50%; inhibition at 10 µM ([3]; 10 μM compound, 10 μM ATP): < 50%
CNc1cc(Nc2cccnc2C(C)(F)F)nc2c(C(=O)NC3CCC3)cnn12 [I-299]	0.2 to 1	< 50	< 50	
CNc1cc(Nc2cccn([C@H]3CCCN(C)C3)c2=O)nc2c(C(=O)NC3CC3)cnn12 [I-511]	0.2 to 1	< 50	< 50	
CNc1cc(Nc2cccn(C3CCOCC3)c2=O)nc2c(C(=O)NCC(C)(C)CO)cnn12 [I-509]	< 0.2	< 50	< 50	
CNc1cc(Nc2cccnc2OC)nc2c(C(=O)N[C@H]3CC[C@H](O)C3)cnn12 [I-467]	0.2 to 1	< 50	< 50	
CNc1cc(Nc2cccnc2OC)nc2c(C(=O)N[C@H]3CCC[C@@H]3O)cnn12 [I-449, (S)—N-((1S,2S)-2-hydroxycyclopentyl)-5-((2-methoxypyridin-3-yl)amino)-7-(methylamino) pyrazolo[1,5-a]pyrimidine-3-carboxamide]	0.2 to 1	< 50	< 50	
CNc1cc(Nc2cccn([C@H]3CCCOC3)c2=O)nc2c(C(=O)N[C@H]3CC[C@@H]3O)cnn12 [I-697]	< 0.2	< 50	< 50	
CNc1cc(Nc2cccn([C@H]3CCOC3)c2=O)nc2c(C(N)=O)cnn12 [I-196]	0.2 to 1	< 50	< 50	
CNc1cc(Nc2cccnc2OC)nc2c(C(=O)N[C@H]3[C@@H]4COC[C@@H]43)cnn12 [I-445, N-((1R,5S,6r)-3-oxabicyclo[3.1.0]hexan-6-yl)-5-((2-methoxypyridin-3-yl)amino)-7-(methylamino)pyrazolo[1,5-a]pyrimidine-3-carboxamide]	0.2 to 1	< 50	< 50	
CNc1cc(Nc2cccn(C3CCN(CCF)CC3)c2=O)nc2c(C(=O)N[C@@H]3CC[C@@H]3O)cnn12 [I-897]	0.2 to 1			inhibition at 10 µM ([2]; 10 μM compound, 10 μM ATP): < 50%; inhibition at 10 µM ([3]; 10 μM compound, 10 μM ATP): < 50%
CNc1cc(Nc2cccn(C3CCN(CCF)CC3)c2=O)nc2c(C(=O)N[C@H]3CC[C@@H]3O)cnn12 [I-899]	< 0.2			inhibition at 10 µM ([2]; 10 μM compound, 10 μM ATP): < 50%; inhibition at 10 µM ([3]; 10 μM compound, 10 μM ATP): < 50%
CNc1cc(Nc2cccn(-c3cccc(C(C)(C)O)n3)c2=O)nc2c(C(=O)NC3CC3)cnn12 [I-155]	< 0.2	< 50	< 50	

From patent publication US10508120B2, “TYK2 inhibitors and uses thereof” (Nimbus Lakshmi, Inc., priority 2017, dated 2019)
